Values quoted from earlier work as cited in patent US20140107223A1, “TOPICAL UBIQUINOL SUPPLEMENT SKIN CARE COMPOSITIONS” (WHITEHILL ORAL TECHNOLOGIES, INC., priority 2012, published 2014).

Columns and labels:
[1] = 150 mg capsule/day for two months
[2] = not given; remark: listed apart in the source
[3] = tested on: human monocytic cellline THP-1; conditions: LPS-stimulated THP-1
[4] = topical once weekly via syringe for six weeks, combined with mechanical debridement
CRP concentrations = conditions: dietary supplementation, healthy baboons

Compound | water solubility | effect on oral environment for periodontal disease [1] | bioavailability versus ubiquinone ([2]; oral) | time to steady-state concentrations ([2]; oral administration) | time required to reach peak concentration ([2]; oral administration, absorption from the gastrointestinal tract) | peak blood values ([2]; oral, 150 mg per day in a softgel, within 28 days) [µg/mL] | effect on inflammatory cytokines and chemokines in vitro [3] | bleeding on probing [4] | baseline inflammatory status indicated by CRP concentrations (CRP concentrations)
COc1c(O)c(C)c(C/C=C(\C)CC/C=C(\C)CC/C=C(\C)CC/C=C(\C)CC/C=C(\C)CC/C=C(\C)CC/C=C(\C)CC/C=C(\C)CC/C=C(\C)CCC=C(C)C)c(O)c1OC [UBIQUINOL] | less than 0.1 mg/ml | is effective in improving oral environment for periodontal disease | greater bioavailability than ubiquinone | two | approximately 6 hours | 3.84 | anti-inflammatory effects |  | 
COC1=C(OC)C(=O)C(C/C=C(\C)CC/C=C(\C)CC/C=C(\C)CC/C=C(\C)CC/C=C(\C)CC/C=C(\C)CC/C=C(\C)CC/C=C(\C)CC/C=C(\C)CCC=C(C)C)=C(C)C1=O [CoQ10, coenzyme Q10] |  |  |  |  |  |  |  | no bleeding at six weeks | significantly enhances this anti-inflammatory effect
Vitamin E |  |  |  |  |  |  |  |  | reduces baseline inflammatory status
